Test results reported in patent US3933918A, “2-Allyloxy-4-chloro-acetophenone” (Kyowa Hakko Kogyo Co., Ltd., priority 1973, dated 1976).
Counter-ions that a name gives are not always drawn.

Assays:
[1] = Acute toxicity in mice, determined as LD50; conditions: in vivo, mouse; for LD50 at 168 h: po, P.O., observed one week; for LD50 at 72 h: sc, S.C., observed 72 hours
Description: (§1) Acute Toxicity in Mice and in Rats -- Determined as LD50
a. More than 5 groups of male ddy-strain mice, each consisting of 10 animals weighing 18-20 g are used. The animals are given graded doses of the test compound or the standard compound by subcutaneous injection and are observed for 72 hours.
b. More than 6 groups of male dd-strain mice, each consisting of 20 animals weighing 18-20 g are used. The animals are given graded doses of the test compound or the standard compound orally and are observed for one week.
(§2) The LD50 is calculated according to the method of Litchfield and Wilcoxon [J. Pharmacol. & Exper. Therap. 96, 99 (1949)].

[2] = test system: coughs induced by mechanical stimulation of the tracheal mucosa; experiment: Antitussive effect on coughs induced by mechanical stimulation of the tracheal mucosa in anesthetized cats ("Coughing cat" method); type: in vivo; conditions: for ED50: Felis catus, iv, cat, mechanical stimulation, i.v., fiducial limits (P = 0.05), read-out: AtD50 (50% antitussive dose)
Description: b. Effect on coughs induced by mechanical stimulation of the tracheal mucosa in anesthetized cats
(§3) More than 4 groups of cats, each consisting of 6 animals of either sex weighing 2-3 kg are used. The animals are lightly anesthetized by intraperitoneal injection of 20 mg/kg of pentobarbital sodium. The test is conducted according to "Coughing cat" method [Folia Pharmacol japon. 55 99 (1959)].
Coughs are induced in the same manner as described above except that a bristle stimulator made of whiskers of rabbit is used. The AtD50 is calculated in the same manner as described above.

[3] = test system: coughs induced by electrical stimulation of central stump of the superior laryngeal nerve; experiment: Antitussive effect on coughs induced by electrical stimulation of central stump of the superior laryngeal nerve in anesthetized cats; type: in vivo; conditions: Felis catus, iv, cat, i.v., fiducial limits (P = 0.05), read-out: AtD50 (50% antitussive dose)
Description: as §3, with “the” for “"Coughing cat"”, “of Domenjoz (Arch. Exp. Path. u. Pharmakol, 215, 19 (1952)].” for “[Folia Pharmacol japon. 55 99 (1959)].”
The changes of inner pressure of the trachea brought about by coughs are recorded. The animals are given graded doses of the test compound or the standard compound by intravenous injection.
The antitussive effect of the compounds is determined by the changes in both the amplitude and frequency of the cough curves and the duration of the changes. When the amplitude and/or the frequency of the coughs induced by a stimulus of moderate intensity are decreased by more than 20% as compared with those before administration of the drug and when the decrease lasts for more than 20 minutes, the effect is determined to be significant. On the basis of the criteria of evaluation, the AtD50 is calculated according to the method of Lichfield and Wilcoxon.

[4] = test system: pulmonary stretch receptor; experiment: Effect on the pulmonary stretch receptor impulses in guinea pigs; type: in vivo, guinea pig; conditions: for Time required to return to the level before treatment with drug / Change of voltage of stretch receptor impulses (as compared with that before treatment with drug): reduced to / Change of voltage of stretch receptor impulses (as compared with that before treatment with drug): guinea pig
Source text: b. Effect on the pulmonary stretch receptor impulses
Five guinea pigs weighing 400-600 g are used. The animals are anesthetized by subcutaneous injection of 1.2 g/kg of urethane and disposed in a supine position. The chest is opened under artificial ventilation. The left vagus nerve is sectioned at the cervical region and the peripheral stumps is placed on a bipolar platinum electrode. The impulses from the pulmonary stretch receptors are observed on an oscilloscope and recorded with a long-recording camera.
The animals are given graded doses of the hydrochloride of 2-allyloxy-4-chloro-β-piperidinopropiophenone by intravenous injection.
The action of the compound on a peripheral nerve is determined by the change of the voltage of the stretch receptor impulses.
As a control, the same test is conducted using benzonatate which is known as a peripherally acting antitussive.

[5] = test system: coughs induced by mechanical stimulation of the tracheal mucosa; experiment: Antitussive effect on coughs induced by mechanical stimulation of the tracheal mucosa in dogs ("Coughing dog" method); type: in vivo; conditions: for ED50: Canis lupus familiaris, iv, dog, mechanical stimulation, i.v., fiducial limits (P = 0.05), read-out: AtD50 (50% antitussive dose)
Description: a. Effect on coughs induced by mechanical stimulation of the tracheal mucosa in dogs
More than 4 groups of dogs, each consisting of 5 animals of either sex weighing 6-10 kg are used. The test is conducted according to "Coughing dog" method [Jap. J. Pharmacol. 2, 7-13 (1952); Pharm. Bull. (Japan) 2 298 (1954); and Jap. J. Pharmacol. 4 130 (1955)]. Coughs are induced by mechanical stimulation with a bristle stimulator made of pig bristles on the tracheal bifurcation through a chronically-built tracheal fistula.
Stimulation is applied by constantly and intensely moving the stimulator up and down 10 times for 20 seconds and the stimulation is repeated every 5 minutes. The changes of the inner pressure of the trachea brought about by coughs are recorded on a smoked paper. The animals are given graded doses of the test compound or the standard compound by intravenous injection.
The antitussive effect of the compounds is determined by the changes in both the amplitude and frequency of the cough curves on the smoked paper and the duration of such changes. When the amplitude and/or the frequency are decreased by more than 20% as compared with those before administration of the drug and when the decrease lasts for more than 20 minutes, the effect is determined to be significant. On the basis of the criteria of evaluation, the 50% antitussive dose (hereinafter referred to as AtD50) is calculated according to the method of Litchfield and Wilcoxon.

[6] = Acute toxicity in rats, determined as LD50; conditions: in vivo, po; rat, P.O., observed one week
Description: as §1
c. More than 5 groups of male Wistar strain rats, each consisting of 15 animals weighing 110-150 g are used. The animals are given graded doses of the test compound and the standard compound orally and are observed for one week.
as §2

[7] = test system: coughs induced by mechanical stimulation on the mucosa of the tracheal bifurcation; experiment: Comparison of equi-active antitussive doses for various routes of administration in anesthetized dogs; type: in vivo, dog; conditions: for Site of antitussive action: central nerve: conclusion in words; for Dose giving nearly the same antitussive effect: dog
Description: a. Comparison of equi-active doses for various routes of administration
Five dogs weighing 8-10 kg are used. Polyethylene tubes are previously installed in the animals in the femoral vein, the vertebral artery and the cerebello-medullary cistern. The animals are lightly anesthetized by intraperitoneal injection of 20 mg/kg of pentobarbital sodium. The hydrochloride of 2-allyloxy-4-chloro-β-piperidinopropiophenone is given through the polyethylene tubes. Coughs are induced by mechanical stimulation on the mucosa of the tracheal bifurcation. The doses necessary to obtain the same degree of antitussive effect as that obtained by the administration through the femoral vein are determined.

Compound: C=CCOc1cc(Cl)ccc1C(=O)CCN1CCCCC1 [2-Allyloxy-4-Chloro-β-Piperidinopropiophenone Hydrochloride]
- LD50 at 168 h [1]: 240 mg/kg
- LD50 at 72 h [1]: 105 mg/kg
- ED50 [2]: 4.8 mg/kg
- Antitussive effect compared with codeine phosphate ([2]; cats, statement in words): antitussive effect equal to codeine phosphate
- ED50 [3]: 4.2 mg/kg
- Time required to return to the level before treatment with drug ([4]; i.v., 5.0 mg/kg): 10 to 20 min
- Change of voltage of stretch receptor impulses (as compared with that before treatment with drug): reduced to ([4]; i.v., 10.0 mg/kg): 1/2
- Time required to return to the level before treatment with drug ([4]; i.v., 10.0 mg/kg): ~30 min
- Change of voltage of stretch receptor impulses (as compared with that before treatment with drug) ([4]; i.v., 1.0-2.0 mg/kg): none
- Effect on the impulses of the pulmonary stretch receptor ([4]; statement in words): repress the impulses of the pulmonary stretch receptor
- ED50 [5]: 3.3 mg/kg
- Antitussive effect compared with codeine phosphate ([5]; dogs, statement in words): antitussive effect equal to codeine phosphate
- LD50 at 168 h [6]: 1020 mg/kg
- Site of antitussive action: central nerve ([7]; Hydrochloride): exerts its action on the central nerve
- Dose giving nearly the same antitussive effect ([7]; cerebello-medullary cistern): 0.06 to 0.1 mg/kg
- Dose giving nearly the same antitussive effect ([7]; femoral vein): 4.30 mg/kg
- Dose giving nearly the same antitussive effect ([7]; vertebral artery): 0.4 to 0.8 mg/kg
- Ratio of effective doses for the three routes compared with codeine ([7]; statement in words): almost the same as that obtained by using codeine

Compound: C=CCOc1cc(Cl)ccc1C(=O)CCN1CCCCC1 [2-allyloxy-4-chloro-β-piperidinopropiophenone]
- Site of antitussive action: peripheral nerves ([4]; conclusion in words): exerts a considerable action on peripheral nerves
- Site of antitussive action: central nerve [7]: acts centrally

Compound: CCCCNc1ccc(C(=O)OCCOCCOCCOCCOCCOCCOCCOCCOCCOC)cc1 [Benzonatate]
- Change of voltage of stretch receptor impulses (as compared with that before treatment with drug): reduced to ([4]; 1.0 mg/kg): 3/4
- Time required to return to the level before treatment with drug ([4]; 1.0 mg/kg): 10 min
- Change of voltage of stretch receptor impulses (as compared with that before treatment with drug): reduced to ([4]; 2.0 mg/kg): 1/2
- Time required to return to the level before treatment with drug ([4]; 2.0 mg/kg): 30 min
- Change of voltage of stretch receptor impulses (as compared with that before treatment with drug): reduced to ([4]; 4.0 mg/kg): zero
- Time required to return to the level before treatment with drug ([4]; 4.0 mg/kg): 30 to 40 min
- Change of voltage of stretch receptor impulses (as compared with that before treatment with drug) ([4]; 0.1-0.5 mg/kg): none

Compound: COc1ccc2c3c1O[C@H]1[C@@H](O)C=C[C@H]4[C@@H](C2)N(C)CC[C@@]341 [Codeine phosphate, reference compound]
- LD50 at 168 h [1]: 729 mg/kg
- LD50 at 72 h [1]: 191 mg/kg
- ED50 [2]: 2.3 mg/kg
- ED50 [3]: 2.1 mg/kg
- ED50 [5]: 2.5 mg/kg
- LD50 at 168 h [6]: 807 mg/kg
